Measured values from ChEMBL document CHEMBL3885881, “DrugMatrix”.

Organism: Rattus norvegicus
Assay: DrugMatrix - Regimen: Daily Repeat
Assay type: toxicity, organism-based, Sprague-Dawley
Set-up: regimen Daily Repeat, gender Male, age 6-8 weeks
Settings: in vivo, po, route oral GAVAGE, […]; for ABSOLUTE BASOPHIL / ABSOLUTE EOSINOPHIL / ABSOLUTE LYMPHOCYTE / ABSOLUTE MONOCYTE / ABSOLUTE SEGMENTED NEUTROPHIL / BASOPHIL / EOSINOPHIL / ERYTHROCYTE COUNT / HEMATOCRIT / HEMOGLOBIN / LEUKOCYTE COUNT / LYMPHOCYTE / MEAN CORPUSCULAR HEMOGLOBIN / MEAN CORPUSCULAR HEMOGLOBIN CONCENTRATION / MEAN CORPUSCULAR VOLUME / MONOCYTE / NEUTROPHIL / NUCLEATED RED BLOOD CELLS / PLATELET COUNT: tissue Blood; for ALANINE AMINOTRANSFERASE / ALBUMIN / ALKALINE PHOSPHATASE / ASPARTATE AMINOTRANSFERASE / BLOOD UREA NITROGEN / CARBON DIOXIDE / CHLORIDE / CHOLESTEROL / CREATINE PHOSPHOKINASE / CREATININE / GLUCOSE / LACTATE DEHYDROGENASE / LIPASE / PHOSPHORUS / POTASSIUM / SODIUM / TOTAL BILIRUBIN / TOTAL PROTEIN / URIC ACID: tissue Plasma
[1] = 5 mg/kg, 120 h, dose level Low, time 5 day
[2] = 94 mg/kg, 72 h, dose level High, time 3 day
[3] = 94 mg/kg, 120 h, dose level High, time 5 day

`CC(C)n1c(/C=C/C(O)CC(O)CC(=O)O)c(-c2ccc(F)cc2)c2ccccc21` (centres undefined) [FLUVASTATIN] was tested. Which “ABSOLUTE BASOPHIL” value [1] did it give?
Its value is 0 CELLS/uL.

And the “ABSOLUTE EOSINOPHIL” value [1]?
Its value is 0 CELLS/uL.

What about the “ABSOLUTE LYMPHOCYTE” value [1] of the same compound?
Its value is 8489.33 CELLS/uL.

And the “ABSOLUTE MONOCYTE” value [1]?
The value was 28 CELLS/uL.

And the “ABSOLUTE SEGMENTED NEUTROPHIL” value [1]?
The value was 816 CELLS/uL.

And the BASOPHIL [1]?
The BASOPHIL was 0%.

And the EOSINOPHIL [1]?
The EOSINOPHIL was 0%.

And the “ERYTHROCYTE COUNT” value [1]?
The value was 5.73 x10E6/uL.

What about the HEMATOCRIT [1] of the same compound?
The HEMATOCRIT was 34.77%.

And the HEMOGLOBIN [1]?
The HEMOGLOBIN was 13.73 G/DL.

And the “LEUKOCYTE COUNT” value [1]?
The value was 9.33 x10E3/uL.

And the LYMPHOCYTE [1]?
The LYMPHOCYTE was 90.67%.

And the “MEAN CORPUSCULAR HEMOGLOBIN” value [1]?
The value was 24 pg.

And the “MEAN CORPUSCULAR HEMOGLOBIN CONCENTRATION” value [1]?
The value was 39.5 G/DL.

What about the “MEAN CORPUSCULAR VOLUME” value [1] of the same compound?
The value was 60.73 fL.

What about the MONOCYTE [1] of the same compound?
The MONOCYTE was 0.33%.

And the NEUTROPHIL [1]?
Its NEUTROPHIL is 9%.

And the “NUCLEATED RED BLOOD CELLS” value [1]?
Its value is 0 /100WBC.

What about the “PLATELET COUNT” value [1] of the same compound?
Its value is 1186.33 x10E3/uL.

And the “ALANINE AMINOTRANSFERASE” value [1]?
Its value is 89.67 u/L.

What about the ALBUMIN [1] of the same compound?
Its ALBUMIN is 4.33 G/DL.

And the “ALKALINE PHOSPHATASE” value [1]?
The value was 440.33 u/L.

What about the “ASPARTATE AMINOTRANSFERASE” value [1] of the same compound?
The value was 141.33 u/L.

And the “BLOOD UREA NITROGEN” value [1]?
Its value is 13 mg/dL.

And the “CARBON DIOXIDE” value [1]?
The value was 25.67 mmol/L.

What about the CHLORIDE [1] of the same compound?
Its CHLORIDE is 103 MEQ/L.

And the CHOLESTEROL [1]?
The CHOLESTEROL was 59.67 mg/dL.

And the “CREATINE PHOSPHOKINASE” value [1]?
Its value is 300.67 u/L.

What about the CREATININE [1] of the same compound?
The CREATININE was 0.19 mg/dL.

What about the GLUCOSE [1] of the same compound?
Its GLUCOSE is 158.33 mg/dL.

What about the “LACTATE DEHYDROGENASE” value [1] of the same compound?
The value was 263.33 u/L.

What about the LIPASE [1] of the same compound?
The LIPASE was 51.67 u/L.

And the PHOSPHORUS [1]?
The PHOSPHORUS was 9.2 mg/dL.

And the POTASSIUM [1]?
Its POTASSIUM is 5.92 MEQ/L.

And the SODIUM [1]?
The SODIUM was 148.8 MEQ/L.

What about the “TOTAL BILIRUBIN” value [1] of the same compound?
The value was 0.17 mg/dL.

And the “TOTAL PROTEIN” value [1]?
The value was 5.6 G/DL.

And the “URIC ACID” value [1]?
Its value is 0.77 mg/dL.

What about the “ABSOLUTE BASOPHIL” value [2] of the same compound?
Its value is 0 CELLS/uL.

What about the “ABSOLUTE EOSINOPHIL” value [2] of the same compound?
The value was 39 CELLS/uL.

What about the “ABSOLUTE LYMPHOCYTE” value [2] of the same compound?
The value was 7651.67 CELLS/uL.

And the “ABSOLUTE MONOCYTE” value [2]?
The value was 155.33 CELLS/uL.

And the “ABSOLUTE SEGMENTED NEUTROPHIL” value [2]?
Its value is 2554 CELLS/uL.

And the BASOPHIL [2]?
Its BASOPHIL is 0%.

What about the EOSINOPHIL [2] of the same compound?
The EOSINOPHIL was 0.33%.

What about the “ERYTHROCYTE COUNT” value [2] of the same compound?
The value was 5.55 x10E6/uL.

And the HEMATOCRIT [2]?
The HEMATOCRIT was 35.43%.

What about the HEMOGLOBIN [2] of the same compound?
The HEMOGLOBIN was 13.93 G/DL.

What about the “LEUKOCYTE COUNT” value [2] of the same compound?
Its value is 10.4 x10E3/uL.

What about the LYMPHOCYTE [2] of the same compound?
Its LYMPHOCYTE is 73.33%.

And the “MEAN CORPUSCULAR HEMOGLOBIN” value [2]?
Its value is 25.1 pg.

What about the “MEAN CORPUSCULAR HEMOGLOBIN CONCENTRATION” value [2] of the same compound?
The value was 39.33 G/DL.

What about the “MEAN CORPUSCULAR VOLUME” value [2] of the same compound?
Its value is 63.83 fL.

And the MONOCYTE [2]?
Its MONOCYTE is 1.33%.

What about the NEUTROPHIL [2] of the same compound?
Its NEUTROPHIL is 25%.

And the “NUCLEATED RED BLOOD CELLS” value [2]?
Its value is 0 /100WBC.

And the “PLATELET COUNT” value [2]?
Its value is 1394.33 x10E3/uL.

What about the “ALANINE AMINOTRANSFERASE” value [2] of the same compound?
The value was 258.33 u/L.

What about the ALBUMIN [2] of the same compound?
The ALBUMIN was 4.47 G/DL.

And the “ALKALINE PHOSPHATASE” value [2]?
Its value is 597.67 u/L.

What about the “ASPARTATE AMINOTRANSFERASE” value [2] of the same compound?
Its value is 446.67 u/L.

What about the “BLOOD UREA NITROGEN” value [2] of the same compound?
The value was 15 mg/dL.

What about the “CARBON DIOXIDE” value [2] of the same compound?
The value was 34.67 mmol/L.

And the CHLORIDE [2]?
The CHLORIDE was 95.67 MEQ/L.

What about the CHOLESTEROL [2] of the same compound?
Its CHOLESTEROL is 55.67 mg/dL.

And the “CREATINE PHOSPHOKINASE” value [2]?
The value was 534 u/L.

And the CREATININE [2]?
Its CREATININE is 0.16 mg/dL.

And the GLUCOSE [2]?
The GLUCOSE was 136.33 mg/dL.

And the “LACTATE DEHYDROGENASE” value [2]?
Its value is 400.33 u/L.

And the LIPASE [2]?
The LIPASE was 10 u/L.

What about the PHOSPHORUS [2] of the same compound?
Its PHOSPHORUS is 11.83 mg/dL.

What about the POTASSIUM [2] of the same compound?
Its POTASSIUM is 5.75 MEQ/L.

What about the SODIUM [2] of the same compound?
Its SODIUM is 143.43 MEQ/L.

And the “TOTAL BILIRUBIN” value [2]?
Its value is 0.2 mg/dL.

And the “TOTAL PROTEIN” value [2]?
The value was 6.1 G/DL.

What about the “URIC ACID” value [2] of the same compound?
The value was 0.7 mg/dL.

And the “ABSOLUTE BASOPHIL” value [3]?
Its value is 0 CELLS/uL.

And the “ABSOLUTE EOSINOPHIL” value [3]?
Its value is 0 CELLS/uL.

What about the “ABSOLUTE LYMPHOCYTE” value [3] of the same compound?
Its value is 6138.33 CELLS/uL.

And the “ABSOLUTE MONOCYTE” value [3]?
Its value is 139 CELLS/uL.

What about the “ABSOLUTE SEGMENTED NEUTROPHIL” value [3] of the same compound?
Its value is 2022.67 CELLS/uL.

What about the BASOPHIL [3] of the same compound?
Its BASOPHIL is 0%.

And the EOSINOPHIL [3]?
Its EOSINOPHIL is 0%.

What about the “ERYTHROCYTE COUNT” value [3] of the same compound?
Its value is 6.14 x10E6/uL.

What about the HEMATOCRIT [3] of the same compound?
Its HEMATOCRIT is 37.2%.

What about the HEMOGLOBIN [3] of the same compound?
The HEMOGLOBIN was 14.47 G/DL.

And the “LEUKOCYTE COUNT” value [3]?
The value was 8.3 x10E3/uL.

And the LYMPHOCYTE [3]?
Its LYMPHOCYTE is 74%.

What about the “MEAN CORPUSCULAR HEMOGLOBIN” value [3] of the same compound?
The value was 23.6 pg.

And the “MEAN CORPUSCULAR HEMOGLOBIN CONCENTRATION” value [3]?
Its value is 38.9 G/DL.

What about the “MEAN CORPUSCULAR VOLUME” value [3] of the same compound?
Its value is 60.67 fL.

And the MONOCYTE [3]?
Its MONOCYTE is 1.67%.

And the NEUTROPHIL [3]?
Its NEUTROPHIL is 24.33%.

What about the “NUCLEATED RED BLOOD CELLS” value [3] of the same compound?
The value was 0 /100WBC.

And the “PLATELET COUNT” value [3]?
Its value is 1488.67 x10E3/uL.

What about the “ALANINE AMINOTRANSFERASE” value [3] of the same compound?
The value was 191 u/L.

What about the ALBUMIN [3] of the same compound?
Its ALBUMIN is 4.5 G/DL.

What about the “ALKALINE PHOSPHATASE” value [3] of the same compound?
Its value is 802.67 u/L.

And the “ASPARTATE AMINOTRANSFERASE” value [3]?
The value was 387.67 u/L.

What about the “BLOOD UREA NITROGEN” value [3] of the same compound?
Its value is 11.67 mg/dL.

What about the “CARBON DIOXIDE” value [3] of the same compound?
The value was 29.33 mmol/L.

And the CHLORIDE [3]?
The CHLORIDE was 100 MEQ/L.

What about the CHOLESTEROL [3] of the same compound?
The CHOLESTEROL was 53.33 mg/dL.

What about the “CREATINE PHOSPHOKINASE” value [3] of the same compound?
Its value is 612.33 u/L.

And the CREATININE [3]?
The CREATININE was 0.13 mg/dL.

And the GLUCOSE [3]?
Its GLUCOSE is 134.33 mg/dL.

What about the “LACTATE DEHYDROGENASE” value [3] of the same compound?
Its value is 263.33 u/L.

And the LIPASE [3]?
The LIPASE was 38.67 u/L.

And the PHOSPHORUS [3]?
The PHOSPHORUS was 7.8 mg/dL.

And the POTASSIUM [3]?
Its POTASSIUM is 5.55 MEQ/L.

And the SODIUM [3]?
The SODIUM was 149.05 MEQ/L.

What about the “TOTAL BILIRUBIN” value [3] of the same compound?
The value was 0.1 mg/dL.

And the “TOTAL PROTEIN” value [3]?
The value was 6.03 G/DL.

And the “URIC ACID” value [3]?
The value was 0.43 mg/dL.
